Data reported in US9920100B2, “Mimotopes of tropomyosin for use in immunotherapy for shellfish and/or arthropod allergy” (THE REGENTS OF THE UNIVERSITY OF CALIFORNIA, priority 2016, dated 2018).

Tested on: Met e 1
Assay: ELISA of Met e 1-specific IgG1 and IgG2a in serum of BALB/c mice immunized with mimotope-KLH conjugates
Assay type: in vivo, Metapenaeus ensis
Conditions: KLH conjugate in BALB/c mice; compared with the Met e 1 epitope (a.a. 251-270) positive control
Experimental: One mimotope peptide was chosen from each of clusters 1-6 (Table 3) and commercially synthesized (Genscript). The mimotopes were conjugated to keyhole limpet hemocyanin (KLH) using Imject EDC mcKLH Spin Kit (Thermo Scientific) according to manufacturer's instructions. Female BALB/c mice (n=4; 5-6 weeks) were immunized subcutaneously with a mimotope conjugate (50 μg in 200 μl PBS) emulsified in Complete Freund's adjuvant on day 0 and Incomplete Freund's adjuvant on days 14 and 21. Blood samples were collected on day 28 from tail vein of the mice. A Der p 1 mimotope (KGIPNTKAP) (Szalai et al., Mot Immunol, 2008; 45, 1308-1317) and an IgE epitope of Met e 1 ([…]; a.a. 251-270) were also included as negative and positive controls, respectively. All animal protocols were approved by the Animal Experimentation Ethics Committee, CUHK, in accordance with the Department of Health (Government of Hong Kong Special Administrative Region, HKSAR) guidelines in Care and Use of Animals. All experiments were performed under licenses granted from the HKSAR Government.
ELISA was performed as previously described (Wai et al., PLoS One, 2014; 9, e111649) to detect Met e 1-specific IgG antibodies. […] 100 μl of 0.1M sulfuric acid was added to each well to stop the reaction after 10 min of incubation and the optical density at 450 nm was determined using microplate reader (BioRad Model 680). […]

Sequence: GTKLQHFRQ (Synthetic Cluster 4 mimotope) [Cluster 4 mimotope of Met e 1; selected for in vivo verification]
- capacity to induce Met e 1-specific antibodies: lower capacity
